From ChEMBL document CHEMBL5380833 (J Med Chem, 2023)
Calls of active or inactive are those of the source. The calls are words filed in the database; no cut-off is given here.

Tests used:
[1] = molecular target: T1, Protein cereblon/Tyrosine-protein kinase ITK/TSK (Homo sapiens, UniProt Q08881+Q96SW2); assay: PROTAC activity at CRBN/ITK in human Jurkat cells assessed as induction of ITK degradation by Western blot analysis; format: cell-based; conditions: read-out: EC50
Target sequence in this assay (Q08881 whole entry): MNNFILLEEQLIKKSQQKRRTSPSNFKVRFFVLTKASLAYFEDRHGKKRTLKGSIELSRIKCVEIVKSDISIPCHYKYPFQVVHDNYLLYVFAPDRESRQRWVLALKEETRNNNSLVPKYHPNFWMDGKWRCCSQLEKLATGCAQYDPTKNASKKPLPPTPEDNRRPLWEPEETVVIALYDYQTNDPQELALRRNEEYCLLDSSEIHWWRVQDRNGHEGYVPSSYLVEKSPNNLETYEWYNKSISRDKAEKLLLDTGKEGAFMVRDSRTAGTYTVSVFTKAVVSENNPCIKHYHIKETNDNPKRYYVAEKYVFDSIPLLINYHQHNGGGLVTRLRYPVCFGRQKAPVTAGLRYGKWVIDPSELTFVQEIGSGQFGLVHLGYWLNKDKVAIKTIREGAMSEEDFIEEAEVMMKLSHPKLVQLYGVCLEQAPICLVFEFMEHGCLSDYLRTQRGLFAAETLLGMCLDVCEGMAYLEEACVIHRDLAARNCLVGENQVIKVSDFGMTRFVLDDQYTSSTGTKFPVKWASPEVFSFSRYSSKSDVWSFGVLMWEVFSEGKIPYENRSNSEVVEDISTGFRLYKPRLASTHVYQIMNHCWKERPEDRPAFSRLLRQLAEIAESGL
Target sequence in this assay (Q96SW2 whole entry): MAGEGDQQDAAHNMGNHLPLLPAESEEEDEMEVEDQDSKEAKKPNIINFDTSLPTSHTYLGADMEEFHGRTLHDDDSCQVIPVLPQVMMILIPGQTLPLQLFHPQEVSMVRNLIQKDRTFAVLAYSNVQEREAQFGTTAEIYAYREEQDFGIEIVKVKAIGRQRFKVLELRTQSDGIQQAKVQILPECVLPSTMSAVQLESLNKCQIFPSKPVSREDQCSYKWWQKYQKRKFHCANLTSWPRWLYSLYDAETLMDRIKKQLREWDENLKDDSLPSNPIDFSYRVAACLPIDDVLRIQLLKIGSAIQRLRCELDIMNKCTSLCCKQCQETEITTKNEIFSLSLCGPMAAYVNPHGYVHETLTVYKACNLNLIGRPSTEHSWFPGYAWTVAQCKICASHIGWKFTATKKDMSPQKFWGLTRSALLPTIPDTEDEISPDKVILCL

[2] = molecular target: T1, Protein cereblon/Tyrosine-protein kinase ITK/TSK; assay: PROTAC activity at CRBN/ITK in human Jurkat cells assessed as maximum degradation at 0.01 to 10 uM by Western blot analysis relative to control; format: cell-based; conditions: dose 0.01-10 µM
Target sequence in this assay (Q08881 whole entry, looked up): as the sequence (Q08881 whole entry) above
Target sequence in this assay (Q96SW2 whole entry, looked up): as the sequence (Q96SW2 whole entry) above

Interleukin-2 = Interleukin-2 (Homo sapiens, UniProt P60568); assay: Inhibition of IL-2 in human Jurkat cells pretreated with compound for 4 hrs followed by anti-CD3/CD28 stimulation by ELISA analysis; format: cell-based
Interleukin-2, sequence (P60568 whole entry): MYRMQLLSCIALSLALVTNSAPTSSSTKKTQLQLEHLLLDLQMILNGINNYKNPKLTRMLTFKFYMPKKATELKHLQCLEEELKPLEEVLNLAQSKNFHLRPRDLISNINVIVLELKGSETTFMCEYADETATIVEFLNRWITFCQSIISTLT

[3] = AUC (0 to t) in Balb/c mouse at 5 mg/kg, iv measured upto 24 hrs by LC-MS/MS analysis; format: ADME, organism-based; set-up: dose 5 mg/kg, time < 24 hrs, route iv; conditions: in vivo
[4] = AUC (0 to t) in Balb/c mouse at 10 mg/kg, ip measured upto 24 hrs by LC-MS/MS analysis; format: ADME, organism-based; set-up: time < 24 hrs, dose 10 mg/kg, route ip; conditions: in vivo
[5] = AUC (0 to infinity) in Balb/c mouse at 5 mg/kg, iv measured upto 24 hrs by LC-MS/MS analysis; format: ADME, organism-based; set-up: time < 24 hrs, dose 5 mg/kg, route iv; conditions: in vivo
[6] = AUC (0 to infinity) in Balb/c mouse at 10 mg/kg, ip measured upto 24 hrs by LC-MS/MS analysis; format: ADME, organism-based; set-up: dose 10 mg/kg, time < 24 hrs, route ip; conditions: in vivo
[7] = Half life in Balb/c mouse at 5 mg/kg, iv measured upto 24 hrs by LC-MS/MS analysis; format: ADME, organism-based; conditions: in vivo
[8] = Half life in Balb/c mouse at 10 mg/kg, ip measured upto 24 hrs by LC-MS/MS analysis; format: ADME, organism-based; conditions: in vivo
[9] = Volume of distribution at steady state in Balb/c mouse at 5 mg/kg, iv measured upto 24 hrs by LC-MS/MS analysis; format: ADME, organism-based; conditions: in vivo, read-out: Vdss
[10] = Volume of distribution at steady state in Balb/c mouse at 10 mg/kg, ip measured upto 24 hrs by LC-MS/MS analysis; format: ADME, organism-based; conditions: in vivo
[11] = Clearance in Balb/c mouse at 5 mg/kg, iv measured upto 24 hrs by LC-MS/MS analysis; format: ADME, organism-based; conditions: in vivo
[12] = Clearance in Balb/c mouse at 10 mg/kg, ip measured upto 24 hrs by LC-MS/MS analysis; format: ADME, organism-based; conditions: in vivo
[13] = Cmax in Balb/c mouse at 5 mg/kg, iv measured upto 24 hrs by LC-MS/MS analysis; format: ADME, organism-based; set-up: time < 24 hrs, dose 5 mg/kg, route iv; conditions: in vivo
[14] = Cmax in Balb/c mouse at 10 mg/kg, ip measured upto 24 hrs by LC-MS/MS analysis; format: ADME, organism-based; set-up: dose 10 mg/kg, time < 24 hrs, route ip; conditions: in vivo
[15] = MRT last in Balb/c mouse at 5 mg/kg, iv measured upto 24 hrs by LC-MS/MS analysis; format: ADME, organism-based; conditions: Balb/c, in vivo
[16] = MRT last in Balb/c mouse at 10 mg/kg, ip measured upto 24 hrs by LC-MS/MS analysis; format: ADME, organism-based; conditions: in vivo
[17] = Bioavailability in Balb/c mouse at 10 mg/kg, ip measured upto 24 hrs by LC-MS/MS analysis; format: ADME, organism-based; conditions: in vivo
[18] = Toxicity in Balb/c mouse assessed as drug tolerance at 5 mg/kg, iv measured upto 24 hrs by LC-MS/MS analysis; format: organism-based; conditions: in vivo
[19] = Toxicity in Balb/c mouse assessed as drug tolerance at 10 mg/kg, ip measured upto 24 hrs by LC-MS/MS analysis; format: organism-based; conditions: in vivo
[20] = Toxicity in Balb/c mouse assessed as side effects at 5 mg/kg, iv measured upto 24 hrs by LC-MS/MS analysis; format: organism-based; conditions: in vivo
[21] = Toxicity in Balb/c mouse assessed as side effects at 10 mg/kg, ip measured upto 24 hrs by LC-MS/MS analysis; format: organism-based; conditions: in vivo
[22] = molecular target: T1, Protein cereblon/Tyrosine-protein kinase ITK/TSK; assay: PROTAC activity at CRBN/ITK in human Jurkat cells assessed as downregulation of ITK protein by measuring fold change at 100 nM measured after 8 hrs; format: cell-based
Target sequence in this assay (Q08881 whole entry, looked up): as the sequence (Q08881 whole entry) above
Target sequence in this assay (Q96SW2 whole entry, looked up): as the sequence (Q96SW2 whole entry) above

Jurkat [23] = assay: Effect on IKZF1 expression in human Jurkat cells at 100 nM measured after 8 hrs by proteomics analysis; format: functional, cell-based
Jurkat [24] = assay: Effect on IKZF3 expression in human Jurkat cells at 100 nM measured after 8 hrs by proteomics analysis; format: functional, cell-based
Jurkat [25] = assay: Effect on CK1alpha expression in human Jurkat cells at 100 nM measured after 8 hrs by proteomics analysis; format: functional, cell-based
Jurkat [26] = assay: Effect on GSPT1 expression in human Jurkat cells at 100 nM measured after 8 hrs by proteomics analysis; format: functional, cell-based
[27] = molecular target: T2, Protein cereblon/Tyrosine-protein kinase ITK/TSK (Mus musculus) (UniProt Q8C7D2+Q03526); assay: In vivo PROTAC activity at CRBN/ITK xenografted in Balb/c mouse peripheral blood assessed as prolongation of ITK degradation at 20 mg/kg, ip measured for 2 to 16 hrs by Western blot analysis; format: functional, organism-based; conditions: time 2-16 hrs
[28] = molecular target: T2, Protein cereblon/Tyrosine-protein kinase ITK/TSK (Mus musculus); assay: In vivo PROTAC activity at CRBN/ITK xenografted in Balb/c mouse spleen assessed as prolongation of ITK degradation at 20 mg/kg, ip measured for 2 to 16 hrs by Western blot analysis; format: functional, organism-based; conditions: time 2-16 hrs
[29] = molecular target: T2, Protein cereblon/Tyrosine-protein kinase ITK/TSK (Mus musculus); assay: In vivo PROTAC activity at CRBN/ITK xenografted in Balb/c mouse assessed as reduction in cytokine IL-2 production at 25 mg/kg, ip preincubated for 6 hrs followed by abti-CD3 stimulation and measured after 1.5 hrs by ELISA method relative to control; format: functional, organism-based; set-up: scale not given: the % may be the effect or the level left; conditions: time 7.5 hrs
[30] = molecular target: T2, Protein cereblon/Tyrosine-protein kinase ITK/TSK (Mus musculus); assay: (§1) PROTAC activity at CRBN/ITK in Balc/c mouse Primary splenic cell assessed as ITK degradation by immunoblotting analysis; format: cell-based; conditions: dose 0.32-5000 nM
[31] = molecular target: T3, Protein cereblon/Tyrosine-protein kinase ITK/TSK (Mus musculus, UniProt Q8C7D2+Q03526); assay: as §1; format: cell-based
T3 sequence (Q8C7D2 whole entry): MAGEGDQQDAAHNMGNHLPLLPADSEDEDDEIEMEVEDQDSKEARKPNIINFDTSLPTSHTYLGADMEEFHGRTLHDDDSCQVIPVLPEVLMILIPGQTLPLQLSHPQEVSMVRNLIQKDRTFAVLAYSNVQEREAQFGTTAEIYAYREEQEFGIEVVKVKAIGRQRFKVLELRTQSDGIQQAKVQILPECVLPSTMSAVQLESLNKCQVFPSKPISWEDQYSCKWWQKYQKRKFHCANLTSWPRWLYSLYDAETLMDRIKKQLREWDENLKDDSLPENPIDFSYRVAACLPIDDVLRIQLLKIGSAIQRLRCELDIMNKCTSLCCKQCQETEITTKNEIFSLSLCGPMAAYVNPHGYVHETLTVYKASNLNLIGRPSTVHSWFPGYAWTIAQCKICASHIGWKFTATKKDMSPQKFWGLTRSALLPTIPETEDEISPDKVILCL
T3 sequence (Q03526 whole entry): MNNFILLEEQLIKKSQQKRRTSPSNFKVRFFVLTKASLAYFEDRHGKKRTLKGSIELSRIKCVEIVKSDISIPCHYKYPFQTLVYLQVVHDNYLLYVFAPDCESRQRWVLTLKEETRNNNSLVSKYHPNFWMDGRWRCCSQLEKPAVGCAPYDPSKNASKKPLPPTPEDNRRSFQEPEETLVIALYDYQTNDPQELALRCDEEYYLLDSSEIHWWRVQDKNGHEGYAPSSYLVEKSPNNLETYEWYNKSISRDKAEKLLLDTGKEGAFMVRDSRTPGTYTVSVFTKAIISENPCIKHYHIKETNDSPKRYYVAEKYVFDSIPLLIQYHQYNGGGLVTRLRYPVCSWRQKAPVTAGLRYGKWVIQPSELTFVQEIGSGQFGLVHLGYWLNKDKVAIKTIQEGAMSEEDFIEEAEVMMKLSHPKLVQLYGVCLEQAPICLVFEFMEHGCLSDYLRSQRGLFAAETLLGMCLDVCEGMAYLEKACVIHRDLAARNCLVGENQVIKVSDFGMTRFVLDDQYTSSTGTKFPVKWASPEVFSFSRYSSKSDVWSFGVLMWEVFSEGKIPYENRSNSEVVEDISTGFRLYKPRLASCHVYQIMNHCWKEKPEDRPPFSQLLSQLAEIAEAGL

[32] = molecular target: T2, Protein cereblon/Tyrosine-protein kinase ITK/TSK (Mus musculus); assay: PROTAC activity at CRBN/ITK in Balc/c mouse Primary splenic cell assessed as maximum degradation at 0.32 to 5000 nM by immunoblotting analysis relative to control; format: cell-based; conditions: dose 0.32-5000 nM

Question: Which EC50 [1] does the source give for CC1(C)CCc2c(C(=O)Nc3cnn([C@@H](CCN4CCN(CCC5CCN(c6ccc7c(c6)C(=O)N(C6CCC(=O)NC6=O)C7=O)CC5)CC4)c4ccccc4)c3)n[nH]c2C1.O=C(O)C(F)(F)F (stereo partly drawn) here?
Answer: The EC50 was 3.6 nM.

Question: And the Emax [2]?
Answer: The Emax was 95%.

Question: And the EC50 (Interleukin-2)?
Answer: The EC50 was 35.2 nM.

Question: What about the AUC(0-t) at 24 h [3] of the same compound?
Answer: Its AUC(0-t) at 24 h is 15100 ng·h/mL.

Question: What about the AUC(0-t) at 24 h [4] of the same compound?
Answer: Its AUC(0-t) at 24 h is 25900 ng·h/mL.

Question: What about the AUC(0-inf) [5] of the same compound?
Answer: The AUC(0-inf) was 15400 ng·h/mL.

Question: And the AUC(0-inf) [6]?
Answer: Its AUC(0-inf) is 27300 ng·h/mL.

Question: What about the half-life [7] of the same compound?
Answer: The half-life was 263 min.

Question: What about the half-life [8] of the same compound?
Answer: Its half-life is 345 min.

Question: And the Vd [9]?
Answer: Its Vd is 2.06 L/kg.

Question: What about the Vdss [10] of the same compound?
Answer: Its Vdss is 3.06 L/kg.

Question: What about the clearance [11] of the same compound?
Answer: The clearance was 5.4 mL/min/kg.

Question: What about the CL/F [12] of the same compound?
Answer: Its CL/F is 6.1 mL/min/kg.

Question: What about the Cmax [13] of the same compound?
Answer: Its Cmax is 4910 ng/mL.

Question: What about the Cmax [14] of the same compound?
Answer: Its Cmax is 3420 ng/mL.

Question: What about the MRT last at 24 h [15] of the same compound?
Answer: Its MRT last at 24 h is 4.42 h.

Question: And the MRT last at 24 h [16]?
Answer: Its MRT last at 24 h is 5.84 h.

Question: And the bioavailability [17]?
Answer: The bioavailability was 88.4%.

Question: And the Activity [18]?
Answer: Its Activity is “Non-Toxic”.

Question: What about the Activity [19] of the same compound?
Answer: Its Activity is “Non-Toxic”.

Question: And the Activity [20]?
Answer: Its Activity is “Non-Toxic”.

Question: And the Activity [21]?
Answer: The Activity was “Non-Toxic”.

Question: What about the fold change (FC) [22] of the same compound?
Answer: The fold change (FC) was 0.37.

Question: And the Activity (Jurkat [23])?
Answer: Its Activity is “inactive”.

Question: And the Activity (Jurkat [24])?
Answer: The Activity was “inactive”.

Question: What about the Activity (Jurkat [25]) of the same compound?
Answer: Its Activity is “inactive”.

Question: And the Activity (Jurkat [26])?
Answer: Its Activity is “inactive”.

Question: And the Activity [27]?
Answer: Its Activity is “Active”.

Question: What about the Activity [28] of the same compound?
Answer: The Activity was “Active”.

Question: And the Activity [29]?
Answer: The Activity was 70%.

Question: And the Activity [30]?
Answer: The Activity was “Dose-Dependent Effect”.

Question: And the DC50 [31]?
Answer: The DC50 was 2.1 nM.

Question: And the Emax [32]?
Answer: The Emax was over 99%.
